Test results as given in publication PMC3119665, “A New Drug Design Targeting the Adenosinergic System for Huntington's Disease” (PLoS ONE, 2011).

How the values were obtained:
Endothelin ETA = molecular target: T1, Endothelin ETA (Homo sapiens, UniProt P25101); assay: Radioligand binding panel (Table S1); conditions: 10 μM T1-11, n 2
T1 construct: purchased MDS Pharma Services Taiwan

Rolipram = assay: Radioligand binding panel (Table S1); parameters: species or system rat; conditions: 10 μM T1-11, n 2
Adrenergic α 2B = molecular target: T2, Adrenergic α 2B (Homo sapiens, UniProt P18089); assay: Radioligand binding panel (Table S1); conditions: 10 μM T1-11, n 2
T2 construct: purchased MDS Pharma Services Taiwan

Potassium Channel [KA] = assay: Radioligand binding panel (Table S1); parameters: species or system rat; conditions: 10 μM T1-11, n 2
PC12 cells = assay: MTT metabolism assay, serum-deprived PC12 cells; format: cell-based, rat; conditions: 24 h
Method: Survival was assessed by the 3-(4,5-dimethylthiazol-2-yl)-2,5-diphenyltetrazolium bromide (MTT) metabolism assay as described elsewhere, [65]. In brief, cells grown on 150-mm plates were washed three times with PBS and resuspended in DMEM. Suspended cells (1×10^4 cells) were plated on 96-well plates and treated with or without the indicated reagent. After incubation for 24 h, MTT (0.5 mg/ml) was added to the medium and incubated for 3 h. After discarding the medium, DMSO (100 µl) was then applied to the well to dissolve the formazan crystals derived from the mitochondrial cleavage of the tetrazolium ring by live cells. The absorbance at 570/630 nm in each well was measured on a micro-enzyme-linked immunosorbent assay reader.

[1] = system: Tumor Necrosis Factor (TNF), Non-Selective; assay: Radioligand binding panel (Table S1); parameters: species or system human; conditions: 10 μM T1-11, n 2
Vanilloid = molecular target: T3, Vanilloid (Rattus norvegicus, UniProt O35433); assay: Radioligand binding panel (Table S1); conditions: 10 μM T1-11, n 2
T3 construct: purchased MDS Pharma Services Taiwan

Galanin GAL2 = molecular target: T4, Galanin GAL2 (Homo sapiens, UniProt O43603); assay: Radioligand binding panel (Table S1); conditions: 10 μM T1-11, n 2
T4 construct: purchased MDS Pharma Services Taiwan

[2] = molecular target: T5, Growth Hormone, Secretagogue (GHS, Ghrelin) (Homo sapiens, UniProt Q92847); assay: Radioligand binding panel (Table S1); conditions: 10 μM T1-11, n 2
T5 construct: purchased MDS Pharma Services Taiwan

Dopamine D2S = molecular target: T6, Dopamine D2S (Homo sapiens, UniProt P14416); assay: Radioligand binding panel (Table S1); conditions: 10 μM T1-11, n 2
T6 construct: purchased MDS Pharma Services Taiwan

Motilin = molecular target: T7, Motilin (Homo sapiens, UniProt O43193); assay: Radioligand binding panel (Table S1); conditions: 10 μM T1-11, n 2
T7 construct: purchased MDS Pharma Services Taiwan

mutant Htt aggregates = assay: Striatal Htt aggregates (filter retardation assay, immunofluorescence); format: in vivo; conditions: R6/2 mice, 12 weeks old, 0.05 mg/ml in drinking water
Method: SDS-insoluble mutant Htt aggregates were detected and quantified as described. A filter retardation assay was performed as described previously. Blots were blocked with 5% skim milk in phosphate-buffered saline (PBS) and incubated with an anti-Htt antibody (EM48, 1∶500; Chemicon International, Temecula, CA, USA) at 4°C overnight followed by the corresponding secondary antibody for 1 h at room temperature. Immunoreactive bands were detected by enhanced chemiluminescence (Pierce) and recorded using Kodak XAR-5 film.
Coronal serial sections (20 µm) containing the striatum (interaural 5.34 mm/bregma 1.54 mm to interaural 3.7 mm/bregma −0.1 mm) were immunohistochemically stained as described previously. Brain sections were blocked with normal goat serum and incubated overnight with an anti-Htt antibody (EM48, 1∶500) at 4°C, followed by a 2 h-incubation with a goat anti-mouse IgG conjugated to Alexa Fluor® 568 at room temperature. The nuclei were stained with Hoechst 33258. The patterns of immunostaining were analyzed with a laser confocal microscope (LSM510, Carl Zeiss MicroImaging Inc, Germany). Five different brain sections of each animal were analyzed. At least 2000 cells from each animal were used to quantify the sizes of mHtt aggregates using ImageJ software (http://rsbweb.nih.gov/ij/; Research Services Branch of the National Institute of Mental Health, Bethesda, MD, USA).

Bombesin BB2 = molecular target: T8, Bombesin BB2 (Homo sapiens, UniProt P30550); assay: Radioligand binding panel (Table S1); conditions: 10 μM T1-11, n 2
T8 construct: purchased MDS Pharma Services Taiwan

A2A adenosine receptor = molecular target: T9, A2A adenosine receptor (Homo sapiens, UniProt P29274); assay: Radioligand binding assay
T9 construct: host or cells: HEK293

[3] = molecular target: T10, Adenosine transporter (ENT1) (Cavia porcellus, UniProt H0V4R7); assay: Radioligand binding assay; parameters: species or system guinea pig
T10 construct: Membrane fractions collected from the cerebral cortex of Duncan Hartley derived guinea pigs; tissue MDS Pharma Services Taiwan; host or cells: guinea pig cerebral cortex
T10 sequence (H0V4R7 1-461): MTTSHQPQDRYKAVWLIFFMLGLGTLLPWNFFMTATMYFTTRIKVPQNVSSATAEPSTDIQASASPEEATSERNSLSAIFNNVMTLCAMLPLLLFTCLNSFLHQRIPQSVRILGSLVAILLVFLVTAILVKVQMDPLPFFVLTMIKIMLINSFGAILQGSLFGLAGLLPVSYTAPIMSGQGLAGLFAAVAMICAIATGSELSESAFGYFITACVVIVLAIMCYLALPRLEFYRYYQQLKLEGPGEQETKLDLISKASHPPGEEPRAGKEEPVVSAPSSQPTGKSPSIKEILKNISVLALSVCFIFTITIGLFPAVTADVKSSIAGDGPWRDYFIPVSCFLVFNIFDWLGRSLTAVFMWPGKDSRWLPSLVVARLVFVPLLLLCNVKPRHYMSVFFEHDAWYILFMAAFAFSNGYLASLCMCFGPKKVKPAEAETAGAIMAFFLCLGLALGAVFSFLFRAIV

[4] = system: Calcium Channel L-Type, Dihydropyridine; assay: Radioligand binding panel (Table S1); parameters: species or system rat; conditions: 10 μM T1-11, n 2
Dopamine D4.2 = molecular target: T11, Dopamine D4.2 (Homo sapiens, UniProt P21917, DEL265-296); assay: Radioligand binding panel (Table S1); conditions: 10 μM T1-11, n 2
T11 construct: purchased MDS Pharma Services Taiwan

[5] = system: GABAA, Benzodiazepine, Central, Ro-15-1788; assay: Radioligand binding panel (Table S1); parameters: species or system rat; conditions: 10 μM T1-11, n 2
Adrenomedullin AM2 = molecular target: T12, Adrenomedullin AM2 (Homo sapiens, UniProt O60896+Q16602); assay: Radioligand binding panel (Table S1); conditions: 10 μM T1-11, n 2
T12 construct: purchased MDS Pharma Services Taiwan

[6] = HEK293 membranes, 3H-CGS21680 50 nM
[7] = guinea pig cerebral cortex membranes, 3H-NBTI 0.5 nM

T9 sequence (P29274 whole entry): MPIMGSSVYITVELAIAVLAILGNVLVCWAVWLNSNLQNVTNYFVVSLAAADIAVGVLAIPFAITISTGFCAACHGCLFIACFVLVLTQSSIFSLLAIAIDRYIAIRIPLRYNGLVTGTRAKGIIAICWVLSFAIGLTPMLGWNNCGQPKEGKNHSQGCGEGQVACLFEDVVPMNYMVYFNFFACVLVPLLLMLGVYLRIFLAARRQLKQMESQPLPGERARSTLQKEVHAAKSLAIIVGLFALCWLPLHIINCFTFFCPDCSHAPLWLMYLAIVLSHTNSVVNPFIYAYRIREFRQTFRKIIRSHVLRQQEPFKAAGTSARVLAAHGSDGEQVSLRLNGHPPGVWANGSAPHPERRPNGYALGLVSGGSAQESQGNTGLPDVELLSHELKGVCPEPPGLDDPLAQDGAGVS
T3 sequence (O35433 whole entry): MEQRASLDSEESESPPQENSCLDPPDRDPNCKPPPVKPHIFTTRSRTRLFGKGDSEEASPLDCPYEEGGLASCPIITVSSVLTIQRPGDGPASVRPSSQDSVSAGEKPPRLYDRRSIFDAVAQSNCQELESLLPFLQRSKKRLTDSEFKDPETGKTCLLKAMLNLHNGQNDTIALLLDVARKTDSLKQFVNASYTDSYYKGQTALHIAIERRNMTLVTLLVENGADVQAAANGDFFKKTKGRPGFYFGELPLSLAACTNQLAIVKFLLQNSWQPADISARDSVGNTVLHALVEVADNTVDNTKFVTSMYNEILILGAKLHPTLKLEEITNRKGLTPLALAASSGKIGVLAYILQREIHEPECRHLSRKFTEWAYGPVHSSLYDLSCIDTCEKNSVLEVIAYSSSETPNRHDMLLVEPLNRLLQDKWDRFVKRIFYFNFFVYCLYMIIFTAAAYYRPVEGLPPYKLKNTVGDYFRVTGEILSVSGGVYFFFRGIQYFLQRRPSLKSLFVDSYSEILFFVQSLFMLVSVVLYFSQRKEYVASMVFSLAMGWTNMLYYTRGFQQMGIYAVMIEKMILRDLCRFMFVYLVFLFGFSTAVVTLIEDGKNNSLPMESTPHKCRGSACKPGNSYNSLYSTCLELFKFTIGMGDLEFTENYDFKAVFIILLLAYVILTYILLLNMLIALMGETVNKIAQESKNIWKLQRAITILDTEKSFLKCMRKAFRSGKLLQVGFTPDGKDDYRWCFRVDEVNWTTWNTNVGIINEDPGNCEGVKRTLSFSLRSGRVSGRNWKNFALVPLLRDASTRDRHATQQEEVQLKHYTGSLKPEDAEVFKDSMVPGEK
T2 sequence (P18089 whole entry): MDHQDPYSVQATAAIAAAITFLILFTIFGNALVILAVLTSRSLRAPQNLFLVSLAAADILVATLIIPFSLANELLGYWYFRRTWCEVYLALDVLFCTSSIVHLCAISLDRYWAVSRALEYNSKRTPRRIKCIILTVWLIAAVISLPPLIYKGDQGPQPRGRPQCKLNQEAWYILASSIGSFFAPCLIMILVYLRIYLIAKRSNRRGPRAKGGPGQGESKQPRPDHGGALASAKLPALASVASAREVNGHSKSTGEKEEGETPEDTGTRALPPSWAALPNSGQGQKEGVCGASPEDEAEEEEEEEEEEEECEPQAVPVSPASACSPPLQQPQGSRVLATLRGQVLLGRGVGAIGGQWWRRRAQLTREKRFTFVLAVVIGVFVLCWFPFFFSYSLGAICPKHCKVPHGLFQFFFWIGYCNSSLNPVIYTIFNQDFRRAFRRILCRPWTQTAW
T11 sequence (P21917 with tags, fused parts or gaps DEL265-296): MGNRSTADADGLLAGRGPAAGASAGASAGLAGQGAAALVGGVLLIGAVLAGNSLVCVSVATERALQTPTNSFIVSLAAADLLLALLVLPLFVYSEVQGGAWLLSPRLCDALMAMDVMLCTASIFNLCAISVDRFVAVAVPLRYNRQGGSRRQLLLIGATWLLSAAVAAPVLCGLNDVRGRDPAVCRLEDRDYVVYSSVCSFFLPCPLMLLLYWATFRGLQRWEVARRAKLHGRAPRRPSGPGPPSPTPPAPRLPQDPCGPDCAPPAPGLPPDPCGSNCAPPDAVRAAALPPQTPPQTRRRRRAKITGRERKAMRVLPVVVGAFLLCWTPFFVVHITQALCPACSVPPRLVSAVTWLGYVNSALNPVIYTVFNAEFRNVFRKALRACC
T6 sequence (P14416 1-414 isoform P14416-2): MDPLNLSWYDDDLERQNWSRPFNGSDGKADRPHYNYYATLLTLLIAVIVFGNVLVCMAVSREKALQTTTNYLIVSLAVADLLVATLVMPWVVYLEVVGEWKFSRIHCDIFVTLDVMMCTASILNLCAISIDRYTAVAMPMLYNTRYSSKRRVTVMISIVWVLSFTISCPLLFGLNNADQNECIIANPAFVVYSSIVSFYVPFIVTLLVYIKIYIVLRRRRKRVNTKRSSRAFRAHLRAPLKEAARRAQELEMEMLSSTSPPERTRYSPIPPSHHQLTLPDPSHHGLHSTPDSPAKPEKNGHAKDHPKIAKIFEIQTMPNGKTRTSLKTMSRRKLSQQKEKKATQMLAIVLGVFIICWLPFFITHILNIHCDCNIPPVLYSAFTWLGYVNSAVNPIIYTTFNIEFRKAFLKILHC
T1 sequence (P25101 21-427): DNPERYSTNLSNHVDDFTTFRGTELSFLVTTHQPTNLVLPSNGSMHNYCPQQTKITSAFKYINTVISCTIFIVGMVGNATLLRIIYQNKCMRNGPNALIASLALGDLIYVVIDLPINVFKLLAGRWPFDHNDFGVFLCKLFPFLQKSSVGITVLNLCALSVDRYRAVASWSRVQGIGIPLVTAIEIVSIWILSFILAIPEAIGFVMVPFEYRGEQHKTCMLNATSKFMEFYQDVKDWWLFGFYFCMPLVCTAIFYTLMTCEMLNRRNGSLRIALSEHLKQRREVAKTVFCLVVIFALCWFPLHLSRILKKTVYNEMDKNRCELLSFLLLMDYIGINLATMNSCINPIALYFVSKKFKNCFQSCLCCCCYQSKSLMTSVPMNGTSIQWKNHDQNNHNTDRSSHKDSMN
T4 sequence (O43603 whole entry): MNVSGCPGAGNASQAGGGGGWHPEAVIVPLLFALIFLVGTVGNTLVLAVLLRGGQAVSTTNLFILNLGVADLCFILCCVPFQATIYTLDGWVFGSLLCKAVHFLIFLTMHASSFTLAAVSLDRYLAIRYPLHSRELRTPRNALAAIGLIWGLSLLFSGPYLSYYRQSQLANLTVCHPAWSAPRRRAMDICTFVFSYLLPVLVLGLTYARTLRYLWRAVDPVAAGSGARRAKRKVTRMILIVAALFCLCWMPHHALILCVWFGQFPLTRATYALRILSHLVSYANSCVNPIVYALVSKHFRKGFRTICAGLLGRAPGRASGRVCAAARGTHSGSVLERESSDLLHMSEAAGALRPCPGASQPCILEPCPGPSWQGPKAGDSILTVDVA
T8 sequence (P30550 whole entry): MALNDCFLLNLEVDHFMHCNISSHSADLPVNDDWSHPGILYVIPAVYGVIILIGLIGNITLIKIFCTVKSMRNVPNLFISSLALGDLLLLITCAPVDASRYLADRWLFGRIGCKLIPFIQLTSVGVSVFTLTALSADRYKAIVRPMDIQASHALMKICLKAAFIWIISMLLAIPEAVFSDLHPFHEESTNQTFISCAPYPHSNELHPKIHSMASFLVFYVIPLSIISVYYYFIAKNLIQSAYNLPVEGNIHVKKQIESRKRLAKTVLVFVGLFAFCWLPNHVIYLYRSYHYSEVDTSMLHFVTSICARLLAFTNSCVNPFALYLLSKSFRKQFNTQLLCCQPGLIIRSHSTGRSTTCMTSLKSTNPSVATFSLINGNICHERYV
T12 sequence (Q16602 23-461): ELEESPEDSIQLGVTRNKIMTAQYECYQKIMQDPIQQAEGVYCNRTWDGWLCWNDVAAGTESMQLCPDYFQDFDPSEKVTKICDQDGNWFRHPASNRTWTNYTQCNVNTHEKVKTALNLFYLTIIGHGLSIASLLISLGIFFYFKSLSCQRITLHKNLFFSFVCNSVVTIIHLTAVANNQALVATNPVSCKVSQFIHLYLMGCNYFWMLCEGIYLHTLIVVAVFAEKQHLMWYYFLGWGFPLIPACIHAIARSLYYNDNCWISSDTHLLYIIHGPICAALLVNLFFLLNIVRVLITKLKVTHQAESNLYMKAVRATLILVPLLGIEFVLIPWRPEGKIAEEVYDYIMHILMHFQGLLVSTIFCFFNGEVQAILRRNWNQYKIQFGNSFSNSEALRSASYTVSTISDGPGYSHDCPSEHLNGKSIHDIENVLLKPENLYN
T12 sequence (O60896 24-148 partner): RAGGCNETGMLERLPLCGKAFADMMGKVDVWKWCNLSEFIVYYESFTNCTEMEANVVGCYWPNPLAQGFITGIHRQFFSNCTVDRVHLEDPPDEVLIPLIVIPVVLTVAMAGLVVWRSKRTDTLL
T5 sequence (Q92847 whole entry): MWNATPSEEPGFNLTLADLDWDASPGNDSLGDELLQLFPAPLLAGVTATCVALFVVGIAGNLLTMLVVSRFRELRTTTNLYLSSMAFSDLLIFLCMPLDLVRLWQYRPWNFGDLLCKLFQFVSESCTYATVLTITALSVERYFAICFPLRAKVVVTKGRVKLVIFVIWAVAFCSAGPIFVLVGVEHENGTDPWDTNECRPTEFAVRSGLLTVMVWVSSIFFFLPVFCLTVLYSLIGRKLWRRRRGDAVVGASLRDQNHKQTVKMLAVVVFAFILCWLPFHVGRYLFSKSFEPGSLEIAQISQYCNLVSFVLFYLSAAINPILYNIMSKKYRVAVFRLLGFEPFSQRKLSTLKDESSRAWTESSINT

SMILES: OC[C@H]1O[C@@H](n2cnc3c(NCc4ccc(O)cc4)ncnc32)[C@H](O)[C@@H]1O [T1-11, N ^6-(4-hydroxybenzyl)adenine riboside]
- inhibition at 10 µM (Endothelin ETA): 3%
- % Inhibition (Rolipram): -6%
- inhibition at 10 µM (Adrenergic α 2B): 2%
- % Inhibition (Potassium Channel [KA]): 1%
- Protection against serum withdrawal-induced cell death (MTT) (PC12 cells): protected against serum withdrawal-induced cell death in a dose-dependent manner
- % Inhibition [1]: -2%
- inhibition at 10 µM (Vanilloid): 8%
- inhibition at 10 µM (Galanin GAL2): 0%
- inhibition at 10 µM [2]: -4%
- inhibition at 10 µM (Dopamine D2S): 10%
- inhibition at 10 µM (Motilin): -2%
- Formation of striatal Htt aggregates (mutant Htt aggregates): markedly reduced the formation of striatal Htt aggregates
- inhibition at 10 µM (Bombesin BB2): 3%
- inhibition at 10 µM (A2A adenosine receptor; 10 μM T1-11, n 2): 58%
- IC50 (A2A adenosine receptor; [6]): 4.66 µM
- Ki (A2A adenosine receptor; [6]): 2.62 µM
- inhibition at 10 µM ([3]; 10 μM T1-11, n 2): 84%
- IC50 [3, 7]: 1.57 µM
- Ki [3, 7]: 0.54 µM
- % Inhibition [4]: -4%
- inhibition at 10 µM (Dopamine D4.2): 3%
- % Inhibition [5]: 1%
- inhibition at 10 µM (Adrenomedullin AM2): 9%
